# Test results: US20050282814A1, “Vasculostatic agents and methods of use thereof” (TargeGen, Inc., priority 2002, published 2005)
# What was measured:
# [1] = system: VEGF-induced Akt kinase phosphorylation; assay: VEGF-induced Akt phosphorylation in lung, Western blot; type: in vivo, Sprague Dawley rats
# Protocol: The ability of compounds to impact PI3K activity in vivo was assessed by examining compound influence on vascular endothelial growth factor (VEGF)-induced Akt kinase phosphorylation (VEGF stimulation being an inducer of PI3K activity, and Akt kinase being a direct target of PI3K). Sprague Dawley rats were first injected intravenously (iv) with either vehicle or test compound at 5 mgfkg, and then 30, 60 or 120 min later injected iv with VEGF. Five minutes later, lungs were harvested and used to generate tissue lysates, which were then probed for phosphorylated Akt using Western blot technology; non-phosphorylated Akt was also probed in the same blots as a loading control. In other studies, test compounds was dosed at either 0.5 or 5 mg/kg, and VEGF delivered 60 min later, in order to assess the dose-response relationship of a compound's activities.
# VEGF-induced edema = assay: Miles assay, VEGF-induced edema; type: in vivo, Sprague-Dawley rats; conditions: general statement in description
# Protocol: A rodent model of vascular edema, the Miles assay, was used to screen compounds for their ability to inhibit VEGF-induced edema.
# Sprague-Dawley rats were first injected IV with vehicle alone or test agent, followed by IV injection of Evans blue dye, followed by intradermal injections of saline and VEGF (200 ng/injection site) along both shaved flanks. After 45 min, intradermal injection sites were photographed and then scored by a blinded observer for extravasation of Evans blue dye into the dermis (dermal bluing) according to a 4 point scoring system (3=maximal bluing, ≧75% of response in vehicle-treated animals; 2=medium bluing, >25% but <75% of vehicle-treated animals; 1=minimal bluing, ≦25% of vehicle-treated animals; 0=bluing equivalent to saline injection sites on same animal). Individual scores for 4 injection sites (from 2 separate animals) were summed and are shown as a scale of 0-12, with a lower score indicating the greater anti-edema activity; note that all vehicle-treated groups score a value of 12, based on the scoring system outlined above.
# [2] = target: T1, human p120γ subunit of PI3K (Homo sapiens, UniProt P48736); assay: PI3K p120γ enzymatic activity at two concentrations (Upstate Group); type: biochemical; conditions: 100% = no inhibition, 0% = complete inhibition
# T1 construct: Upstate Group, Charlottesville, Va; (ran the assay under contract)
# T1 sequence (P48736 whole entry): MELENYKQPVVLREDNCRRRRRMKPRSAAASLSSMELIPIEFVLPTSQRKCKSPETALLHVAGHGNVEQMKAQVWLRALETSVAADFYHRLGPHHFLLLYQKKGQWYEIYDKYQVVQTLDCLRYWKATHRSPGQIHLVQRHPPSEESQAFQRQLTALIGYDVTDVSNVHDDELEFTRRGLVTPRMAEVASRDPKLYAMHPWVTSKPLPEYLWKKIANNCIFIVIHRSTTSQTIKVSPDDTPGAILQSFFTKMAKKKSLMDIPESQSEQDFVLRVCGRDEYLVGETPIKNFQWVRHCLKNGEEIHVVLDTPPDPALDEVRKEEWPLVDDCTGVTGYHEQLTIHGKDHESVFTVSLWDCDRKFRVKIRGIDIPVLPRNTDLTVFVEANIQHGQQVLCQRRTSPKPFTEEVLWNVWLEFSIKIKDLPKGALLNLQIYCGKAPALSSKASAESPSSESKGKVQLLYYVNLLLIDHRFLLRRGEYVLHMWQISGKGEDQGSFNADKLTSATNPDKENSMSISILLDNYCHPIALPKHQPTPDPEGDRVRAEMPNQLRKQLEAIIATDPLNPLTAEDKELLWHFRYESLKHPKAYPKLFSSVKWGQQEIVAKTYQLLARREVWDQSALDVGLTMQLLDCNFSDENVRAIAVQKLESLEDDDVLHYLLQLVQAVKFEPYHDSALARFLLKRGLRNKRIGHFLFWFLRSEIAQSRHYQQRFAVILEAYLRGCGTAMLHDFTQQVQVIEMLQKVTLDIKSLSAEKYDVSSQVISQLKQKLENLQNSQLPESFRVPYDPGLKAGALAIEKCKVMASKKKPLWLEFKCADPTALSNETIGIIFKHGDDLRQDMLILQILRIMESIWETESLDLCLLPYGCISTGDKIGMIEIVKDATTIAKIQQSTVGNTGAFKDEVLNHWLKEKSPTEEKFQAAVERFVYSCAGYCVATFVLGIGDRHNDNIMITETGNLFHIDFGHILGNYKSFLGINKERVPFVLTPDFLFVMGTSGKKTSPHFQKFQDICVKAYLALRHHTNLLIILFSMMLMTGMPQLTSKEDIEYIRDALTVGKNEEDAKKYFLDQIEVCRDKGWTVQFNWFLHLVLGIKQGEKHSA
# Protocol: The ability of compounds to inhibit the activity of PI3K kinase was determined using biochemical assays. In a first assay, compounds were tested at two concentrations (0.5 and 5 μM) for their ability to inhibit enzymatic activity of the human p120γ subunit of PI3K (the assay being performed under contract by Upstate Group, Charlottesville, Va.).
# [3] = system: PAF-induced inflammatory edema; assay: PAF-induced paw inflammatory edema; type: in vivo, Sprague Dawley rats; conditions: 5 mg/kg iv 30 min before PAF; 3 hours
# Protocol: (§1) In order to determine the influence of compounds on the development of inflammation, Sprague Dawley rats were first injected intravenously with either vehicle or test compound at 5 mg/kg, and then 30 min later either PBS (as a control), dextran or platelet activating factor (PAF) was injected into the plantar surface of the hindlimbs, dextran and PAF being known to induce localized inflammatory responses marked by edema. Three hours later, paw dimensions were measured using a caliper and paw volumes calculated; data are shown as the increase in paw volume (mm^3) as compared to controls (paws injected with PBS).
# acute myocardial infarct = assay: Rat acute myocardial infarct model (60 min LAD occlusion, reperfusion); type: in vivo, Sprague-Dawley rats; conditions: rat
# Protocol: A rodent model of acute myocardial infarct, in which the proximal left anterior descending coronary artery (LAD) is occluded for 60 min followed by reperfusion, was used to determine whether test agents reduced infarct size at 24 hours.
# Myocardial infarcts were created in Sprague-Dawley rats (200-300 g body weight) by a 60 min occlusion of the LAD followed by LAD reperfusion. At 90 min post-reperfusion, either vehicle alone or test agents were injected IV. At 24 hr post-treatment, the ischemic zone (area at-risk, AAR) was delineated by re-ligation of the LAD followed by IV injection of alkali blue dye, after which hearts were sectioned along the short axis and stained using triphenyltetrazolium chloride to delineate viable from infarcted myocardium. Photographic images were then analyzed using morphometric software to calculate infarct area as a percent of the at-risk area.
# The following studies were performed as described above, except that the timing of 3-[2,4-diamino-6-(3-hydroxyphenyl)pteridin-7-yl] phenol dihydrochloride salt administration (at 0.1 mg/kg) was varied. In one group, 3-[2,4-diamino-6-(3-hydroxyphenyl)pteridin-7-yl] phenol dihydrochloride salt was administered at both 60 and 240 min post-occlusion.
# In a porcine MI model (90 min of LAD occlusion followed by complete reperfusion), a single 0.3 mg/kg IV bolus delivered 30 min post-reperfusion reduced infarct size by […] vs. controls (40% vs. 56%, N=12-13, P=0.03).
# [4] = system: dextran-induced inflammatory edema; assay: Dextran-induced paw inflammatory edema; type: in vivo, Sprague Dawley rats; conditions: 5 mg/kg iv 30 min before dextran; 3 hours
# Protocol: as §1
# CTLL2 = assay: IL-2 dependent T-cell proliferation, XTT assay; type: cell-based, mouse; conditions: 96 hours, 50 pg human recombinant IL-2; compound E: in the therapeutic range (<1 μM)
# Protocol: An IL-2 dependent […] T cell line, CTLL2, was used to evaluate IL-2 dependent proliferation over 96 hours in the presence of 50 pg of human recombinant IL-2 (R&D Systems) and the indicated compounds using the XTT assay.
# B 16 melanoma cells = assay: B16 melanoma lung metastases, effect on IL-2 anti-tumor activity; type: in vivo, C57 mice; conditions: 100,000 U IL-2 and/or compound I.P. every 8 hours for 5 days; compound D 1 mg/kg range, compound E 0.1 mg/kg range
# Protocol: Invention compound concentrations are listed in parenthesis in mg/kg while IL-2 concentration is given in parenthesis kilounits.
# Syngeneic B 16 melanoma cells were injected I.V. in order to establish lung metastases in C57 mice. Beginning 10 days after cells were injected, 100,000 U of IL-2 and/or indicated invention compounds were given I.P. every 8 hours for 5 days. Animals were sacrificed at day 18, lungs were collected and scored using image analysis software. N=5/group, p<0.02. […] Invention compound concentrations are listed in parenthesis in mg/kg while IL-2 concentration is given in parenthesis kilounits.
# ARDS-induced edema = assay: Oleic acid induced ARDS lung edema, wet/dry weight; type: in vivo, NIH Swiss mice; conditions: 1.5 mg/kg oleic acid i.p., 4 hours; compound in the 0.5 mg/kg range
# Protocol: FIG. 12 illustrates the effects of invention compounds for their capacity to inhibit edema associated with Acute Respiratory Distress Syndrome (ARDS). NIH Swiss mice were given an intraperitoneal injection of 1.5 mg/kg Oleic Acid of (in this example formulated in saline) and/or invention compounds.
# NIH Swiss mice were given an intraperitoneal injection of 1.5 mg/kg Oleic Acid of (in this example formulated in saline) and/or invention compounds.
SMILES,"Inhibition of VEGF-induced Akt phosphorylation, time course ([1]; 5 mg/kg iv, VEGF 30, 60 or 120 min later, lung lysates)","Inhibition of VEGF-induced Akt phosphorylation, dose-response ([1]; 0.5 or 5 mg/kg iv, VEGF 60 min later, lung lysates)",blockade of Akt phosphorylation following VEGF delivery ([1]; general statement in description),inhibition of edema formation in VEGF-treated animals (VEGF-induced edema),"remaining activity at 0.5 µM ([2]; 0.5 μM, read-out: Percent Control Value at 0.5 μM)","remaining activity at 5 µM ([2]; 5 μM, read-out: Percent Control Value at 5 μM)",PAF-induced increase in paw volume [3],"infarct area as percentage of ischemic territory (mean±SD) (acute myocardial infarct; 0.3 mg/kg IV bolus 60 min into reperfusion, 24 hr, vehicle 62%±7)",infarct reduction with varied dosing time (acute myocardial infarct; dosing immediately at reperfusion or out to 3 hr later),dextran-induced increase in paw volume [4],impact on IL-2 induced T-cell proliferation (CTLL2),impact on the anti-tumor activity of IL-2 (B 16 melanoma cells),reduction of ARDS-induced edema (ARDS-induced edema)
"Nc1nc(N)c2nc(-c3cccc(O)c3)c(-c3cccc(O)c3)nc2n1 [6,7-bis-(3-hydroxyphenyl)-pteridine-2,4-diamine]",Inhibition of VEGF-induced Akt phosphorylation was seen at all time-points examined,"at all 6,7-bis-(3-hydroxyphenyl)-pteridine-2,4-diamine doses examined",blockade of Akt phosphorylation,inhibit edema formation in VEGF-treated animals,47%,5%,blocked these responses,35%,Equivalent infarct reductions,blocked these responses,–,–,–
O=C(O)c1ccccc1C(=O)Nc1ccccc1-c1cc2ccccc2[nH]1 [compound D],–,–,–,–,–,–,–,–,–,–,no significant impact,no significant impact,–
Nc1nc(N)c2nc(-c3cccc(O)c3)c(-c3cccc(O)c3)nc2n1.O=S(=O)(O)O [compound E],–,–,–,–,–,–,–,–,–,–,no significant impact,no significant impact,> 50%
